Consider four molecules from ChEMBL document CHEMBL5137085, “GNE-064: A Potent, Selective, and Orally Bioavailable Chemical Probe for the Bromodomains of SMARCA2 and SMARCA4 and the Fifth Bromodomain of PBRM1” (J Med Chem, 2022).

Structures are written as SMILES. ≈ marks a conversion by molar mass, not a printed value.

Data set [1] addresses T1, SWI/SNF-related matrix-associated actin-dependent regulator of chromatin subfamily A member 2 (Homo sapiens, UniProt P51531). Briefly: Binding affinity to human SMARCA2 (S1337 to Q1486 residues) expressed in bacterial expression system by bromoscan assay.
Data set [2] has as its target T2, SWI/SNF-related matrix-associated actin-dependent regulator of chromatin subfamily A member 4 (Homo sapiens, UniProt P51532). The experiment in a line: Binding affinity to human SMARCA4 (A1448 to S1575 residues) expressed in bacterial expression system by bromoscan assay.
In data set [3] the target is T2, SWI/SNF-related matrix-associated actin-dependent regulator of chromatin subfamily A member 4.
In data set [4] the target is Bromodomain-containing protein 4 (Homo sapiens, UniProt O60885). The experiment in a line: Inhibition of BRD4 bromodomain 1 (unknown origin) by TR-FRET assay.
Data set [5] concerns the target T3, Protein polybromo-1 (Homo sapiens, UniProt Q86U86). Briefly: Binding affinity to human PBRM1 bromodomain 5 (S645 to D766 residues) expressed in bacterial expression system by bromoscan assay.
The target in data set [6] is T3, Protein polybromo-1. The experiment in a line: Binding affinity to human PBRM1 bromodomain 2 (S178 to E291 residues) expressed in bacterial expression system by bromoscan assay.
The nature of data set [7]: Kinetic solubility of compound. The format is physicochemical. The note with it: read-out: Kinetic_solubility.
Data set [8] is described as follows: Lipophilicity, LogD of compound. The note with it: octanol/water. The format is physicochemical.
Data set [9] has as its target T1, SWI/SNF-related matrix-associated actin-dependent regulator of chromatin subfamily A member 2. The experiment in a line: Inhibition of SMARCA2 (unknown origin) by TR-FRET assay.
Data set [10] concerns the target T3, Protein polybromo-1. Briefly: Inhibition of PBRM1 bromodomain 5 (unknown origin) by TR-FRET assay.
Data set [11] addresses T2, SWI/SNF-related matrix-associated actin-dependent regulator of chromatin subfamily A member 4. The experiment in a line: Binding affinity to His6/FLAG-tagged SMARCA4 (unknown origin) by isothermal titration calorimetric assay.
Data set [12] concerns the target Cytochrome P450 2C9 (Homo sapiens, UniProt P11712). The experiment in a line: Inhibition of CYP2C9 (unknown origin). Type of data set: ADME.
A short description of data set [13]: Protein binding in human plasma. Conditions: read-out: PPB (converted). Type of data set: ADME, cell-free.
In data set [14] the target is Cytochrome P450 2C19 (Homo sapiens, UniProt P33261). Briefly: Inhibition of CYP2C19 (unknown origin). The format is ADME.
The target in data set [15] is T4, Cytochrome P450 1A2 (Homo sapiens, UniProt P05177).
T4 sequence (P05177 whole entry): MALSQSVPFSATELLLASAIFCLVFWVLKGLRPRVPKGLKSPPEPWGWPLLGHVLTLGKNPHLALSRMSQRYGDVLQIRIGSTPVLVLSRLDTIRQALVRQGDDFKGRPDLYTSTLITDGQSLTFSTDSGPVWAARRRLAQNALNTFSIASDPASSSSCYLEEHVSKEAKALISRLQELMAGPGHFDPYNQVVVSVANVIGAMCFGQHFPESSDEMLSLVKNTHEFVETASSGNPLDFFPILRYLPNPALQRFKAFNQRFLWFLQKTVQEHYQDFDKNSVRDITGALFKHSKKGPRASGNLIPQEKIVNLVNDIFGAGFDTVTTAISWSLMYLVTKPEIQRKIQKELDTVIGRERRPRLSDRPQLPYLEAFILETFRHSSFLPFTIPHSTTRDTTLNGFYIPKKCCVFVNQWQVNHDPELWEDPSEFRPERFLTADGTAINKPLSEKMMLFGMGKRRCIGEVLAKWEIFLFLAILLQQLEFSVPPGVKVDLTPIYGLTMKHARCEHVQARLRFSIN
Briefly: Inhibition of CYP1A2 (unknown origin). The format is ADME.

Data set [16] is described as follows: Clearance in CD-1 mouse at 0.5 mg/kg, iv. The note with it: in vivo. The format is ADME, organism-based.
Data set [17] is described as follows: Fraction unbound in CD-1 mouse at 1 mg/kg, po. Type of data set: ADME, organism-based. Conditions: in vivo.
Data set [18] in a line: Unbound clearance in CD-1 mouse at 0.5 mg/kg, iv. Type of data set: ADME, organism-based. The note with it: in vivo.
A short description of data set [19]: Unbound volume of distribution at steady state in CD-1 mouse at 0.5 mg/kg, iv. Type of data set: ADME, organism-based. Conditions: in vivo.
Data set [20] is described as follows: Half life in CD-1 mouse at 0.5 mg/kg, iv. The format is ADME, organism-based. The note with it: in vivo.
Data set [21] addresses T5, Cytochrome P450 2C8 (Homo sapiens, UniProt P10632).
T5 sequence (P10632 whole entry): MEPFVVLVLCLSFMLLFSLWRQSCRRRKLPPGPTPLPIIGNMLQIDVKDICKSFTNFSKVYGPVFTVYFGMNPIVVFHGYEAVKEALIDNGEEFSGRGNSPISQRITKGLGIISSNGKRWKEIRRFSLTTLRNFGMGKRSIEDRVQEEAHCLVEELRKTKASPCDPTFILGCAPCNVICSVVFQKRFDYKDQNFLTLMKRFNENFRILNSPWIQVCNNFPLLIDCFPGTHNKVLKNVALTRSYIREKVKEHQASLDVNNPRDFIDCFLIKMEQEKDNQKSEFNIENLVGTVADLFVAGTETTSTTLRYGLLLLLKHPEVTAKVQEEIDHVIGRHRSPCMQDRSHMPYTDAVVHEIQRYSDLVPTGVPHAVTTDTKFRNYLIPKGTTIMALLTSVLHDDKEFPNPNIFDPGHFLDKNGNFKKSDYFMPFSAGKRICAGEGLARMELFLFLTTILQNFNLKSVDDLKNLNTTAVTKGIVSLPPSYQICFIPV
The experiment in a line: Inhibition of CYP2C8 (unknown origin). The format is ADME.

In data set [22] the target is Cytochrome P450 3A4 (Homo sapiens, UniProt P08684). Briefly: Inhibition of CYP3A4 (unknown origin). Type of data set: ADME.
Data set [23] in a line: Oral bioavailability in CD-1 mouse at 1 mg/kg. The note with it: in vivo. Type of data set: ADME, organism-based.
Data set [24] is described as follows: Cmax in CD-1 mouse at 1 mg/kg, po. Conditions: in vivo. The format is ADME, organism-based. The arrangement: dose 1 mg/kg, route po.
Data set [25] has as its target Cytochrome P450 2D6 (Homo sapiens, UniProt P10635). The experiment in a line: Inhibition of CYP2D6 (unknown origin). The format is ADME.
Data set [26] in a line: Protein binding in rat plasma. Type of data set: ADME, cell-free. Conditions: read-out: PPB (converted).
Data set [27] can be described thus: Volume of distribution at steady state in CD-1 mouse at 0.5 mg/kg, iv. The format is ADME, organism-based. The note with it: in vivo, read-out: Vdss.
The nature of data set [28]: Protein binding in mouse plasma. The format is ADME, cell-free. The note with it: read-out: PPB (converted).
Data set [29] is described as follows: Tmax in CD-1 mouse at 1 mg/kg, po. The format is ADME, organism-based. Conditions: in vivo.

T2 sequence (P51532 whole entry, the tested form may be a part): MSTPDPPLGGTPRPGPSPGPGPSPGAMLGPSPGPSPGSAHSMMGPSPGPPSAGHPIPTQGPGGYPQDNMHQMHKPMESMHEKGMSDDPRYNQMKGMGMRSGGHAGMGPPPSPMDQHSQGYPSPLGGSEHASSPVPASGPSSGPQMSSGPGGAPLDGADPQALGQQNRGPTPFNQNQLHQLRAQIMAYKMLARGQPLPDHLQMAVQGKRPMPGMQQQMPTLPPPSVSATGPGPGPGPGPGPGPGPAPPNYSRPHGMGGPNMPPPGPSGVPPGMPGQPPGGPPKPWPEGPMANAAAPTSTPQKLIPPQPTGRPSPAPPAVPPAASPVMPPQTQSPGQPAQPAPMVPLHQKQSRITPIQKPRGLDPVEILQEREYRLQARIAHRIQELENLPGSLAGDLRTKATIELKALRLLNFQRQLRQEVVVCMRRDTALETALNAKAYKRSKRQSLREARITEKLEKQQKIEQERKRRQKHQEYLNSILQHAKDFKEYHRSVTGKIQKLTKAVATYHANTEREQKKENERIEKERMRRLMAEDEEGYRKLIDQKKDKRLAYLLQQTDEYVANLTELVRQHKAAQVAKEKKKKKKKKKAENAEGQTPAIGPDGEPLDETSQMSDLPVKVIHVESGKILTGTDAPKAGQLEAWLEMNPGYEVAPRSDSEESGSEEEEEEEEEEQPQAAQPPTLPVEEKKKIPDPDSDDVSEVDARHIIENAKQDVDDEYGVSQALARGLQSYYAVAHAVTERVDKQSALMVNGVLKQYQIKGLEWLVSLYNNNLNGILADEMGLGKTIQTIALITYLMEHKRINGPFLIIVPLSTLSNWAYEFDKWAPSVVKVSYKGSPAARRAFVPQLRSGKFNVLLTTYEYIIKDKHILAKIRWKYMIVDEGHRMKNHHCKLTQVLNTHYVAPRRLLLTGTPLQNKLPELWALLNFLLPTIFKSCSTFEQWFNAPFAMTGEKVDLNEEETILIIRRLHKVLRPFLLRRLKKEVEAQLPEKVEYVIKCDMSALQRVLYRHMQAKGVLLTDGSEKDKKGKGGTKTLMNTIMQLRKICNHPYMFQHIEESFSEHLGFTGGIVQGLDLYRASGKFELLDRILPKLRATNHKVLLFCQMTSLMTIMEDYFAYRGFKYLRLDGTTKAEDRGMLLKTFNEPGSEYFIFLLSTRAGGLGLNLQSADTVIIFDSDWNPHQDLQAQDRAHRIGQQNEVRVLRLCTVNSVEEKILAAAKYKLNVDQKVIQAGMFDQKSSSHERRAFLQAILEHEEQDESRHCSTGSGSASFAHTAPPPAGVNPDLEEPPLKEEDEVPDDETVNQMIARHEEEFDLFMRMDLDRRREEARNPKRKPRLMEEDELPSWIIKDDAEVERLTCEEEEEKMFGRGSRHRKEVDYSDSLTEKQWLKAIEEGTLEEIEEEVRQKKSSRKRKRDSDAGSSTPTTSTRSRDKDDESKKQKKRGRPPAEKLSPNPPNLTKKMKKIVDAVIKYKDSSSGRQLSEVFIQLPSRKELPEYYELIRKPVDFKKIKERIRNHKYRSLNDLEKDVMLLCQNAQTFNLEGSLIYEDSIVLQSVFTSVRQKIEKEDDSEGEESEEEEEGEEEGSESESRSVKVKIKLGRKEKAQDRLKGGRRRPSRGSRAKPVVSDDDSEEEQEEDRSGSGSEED
T1 sequence (P51531 whole entry, the tested form may be a part): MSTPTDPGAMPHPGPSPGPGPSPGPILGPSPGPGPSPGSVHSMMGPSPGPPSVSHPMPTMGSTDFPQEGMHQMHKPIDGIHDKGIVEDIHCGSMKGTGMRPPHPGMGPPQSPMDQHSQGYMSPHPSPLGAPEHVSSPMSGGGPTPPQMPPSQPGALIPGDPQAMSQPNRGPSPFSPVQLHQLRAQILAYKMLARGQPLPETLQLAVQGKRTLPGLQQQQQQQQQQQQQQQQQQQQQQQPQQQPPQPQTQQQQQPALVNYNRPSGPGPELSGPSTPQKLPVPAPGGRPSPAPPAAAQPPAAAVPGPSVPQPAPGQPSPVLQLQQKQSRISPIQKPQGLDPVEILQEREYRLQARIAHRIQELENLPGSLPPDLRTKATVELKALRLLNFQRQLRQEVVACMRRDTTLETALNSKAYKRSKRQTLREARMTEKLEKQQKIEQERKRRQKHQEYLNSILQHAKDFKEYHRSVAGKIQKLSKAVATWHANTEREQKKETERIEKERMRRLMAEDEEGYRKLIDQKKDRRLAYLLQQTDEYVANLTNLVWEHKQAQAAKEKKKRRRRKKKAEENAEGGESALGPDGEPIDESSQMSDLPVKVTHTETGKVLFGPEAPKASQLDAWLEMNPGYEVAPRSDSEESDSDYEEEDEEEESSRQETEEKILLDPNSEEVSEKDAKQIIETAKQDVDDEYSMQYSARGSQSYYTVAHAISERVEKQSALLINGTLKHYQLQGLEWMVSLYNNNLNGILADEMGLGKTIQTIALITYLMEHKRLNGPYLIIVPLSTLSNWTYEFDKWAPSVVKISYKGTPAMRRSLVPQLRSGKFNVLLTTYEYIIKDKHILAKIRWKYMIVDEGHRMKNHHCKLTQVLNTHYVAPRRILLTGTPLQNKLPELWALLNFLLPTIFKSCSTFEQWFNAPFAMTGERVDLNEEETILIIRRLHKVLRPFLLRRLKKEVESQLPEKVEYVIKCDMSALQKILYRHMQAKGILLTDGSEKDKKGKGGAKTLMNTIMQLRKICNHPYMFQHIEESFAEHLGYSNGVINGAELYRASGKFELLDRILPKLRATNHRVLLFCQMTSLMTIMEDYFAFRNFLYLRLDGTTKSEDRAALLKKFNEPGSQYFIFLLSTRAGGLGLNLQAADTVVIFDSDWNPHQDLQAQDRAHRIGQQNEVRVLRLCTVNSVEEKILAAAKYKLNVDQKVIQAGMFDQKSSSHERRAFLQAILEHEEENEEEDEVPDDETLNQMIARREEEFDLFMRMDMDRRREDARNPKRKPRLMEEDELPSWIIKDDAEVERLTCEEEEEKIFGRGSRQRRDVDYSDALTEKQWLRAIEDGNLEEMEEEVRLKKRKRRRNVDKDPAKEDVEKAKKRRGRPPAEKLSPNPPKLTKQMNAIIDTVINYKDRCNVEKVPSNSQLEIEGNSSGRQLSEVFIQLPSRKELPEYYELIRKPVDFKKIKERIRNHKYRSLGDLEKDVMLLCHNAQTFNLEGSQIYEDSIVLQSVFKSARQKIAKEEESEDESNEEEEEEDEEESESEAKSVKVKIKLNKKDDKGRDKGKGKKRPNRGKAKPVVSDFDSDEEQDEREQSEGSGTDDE
T3 sequence (Q86U86 whole entry, the tested form may be a part): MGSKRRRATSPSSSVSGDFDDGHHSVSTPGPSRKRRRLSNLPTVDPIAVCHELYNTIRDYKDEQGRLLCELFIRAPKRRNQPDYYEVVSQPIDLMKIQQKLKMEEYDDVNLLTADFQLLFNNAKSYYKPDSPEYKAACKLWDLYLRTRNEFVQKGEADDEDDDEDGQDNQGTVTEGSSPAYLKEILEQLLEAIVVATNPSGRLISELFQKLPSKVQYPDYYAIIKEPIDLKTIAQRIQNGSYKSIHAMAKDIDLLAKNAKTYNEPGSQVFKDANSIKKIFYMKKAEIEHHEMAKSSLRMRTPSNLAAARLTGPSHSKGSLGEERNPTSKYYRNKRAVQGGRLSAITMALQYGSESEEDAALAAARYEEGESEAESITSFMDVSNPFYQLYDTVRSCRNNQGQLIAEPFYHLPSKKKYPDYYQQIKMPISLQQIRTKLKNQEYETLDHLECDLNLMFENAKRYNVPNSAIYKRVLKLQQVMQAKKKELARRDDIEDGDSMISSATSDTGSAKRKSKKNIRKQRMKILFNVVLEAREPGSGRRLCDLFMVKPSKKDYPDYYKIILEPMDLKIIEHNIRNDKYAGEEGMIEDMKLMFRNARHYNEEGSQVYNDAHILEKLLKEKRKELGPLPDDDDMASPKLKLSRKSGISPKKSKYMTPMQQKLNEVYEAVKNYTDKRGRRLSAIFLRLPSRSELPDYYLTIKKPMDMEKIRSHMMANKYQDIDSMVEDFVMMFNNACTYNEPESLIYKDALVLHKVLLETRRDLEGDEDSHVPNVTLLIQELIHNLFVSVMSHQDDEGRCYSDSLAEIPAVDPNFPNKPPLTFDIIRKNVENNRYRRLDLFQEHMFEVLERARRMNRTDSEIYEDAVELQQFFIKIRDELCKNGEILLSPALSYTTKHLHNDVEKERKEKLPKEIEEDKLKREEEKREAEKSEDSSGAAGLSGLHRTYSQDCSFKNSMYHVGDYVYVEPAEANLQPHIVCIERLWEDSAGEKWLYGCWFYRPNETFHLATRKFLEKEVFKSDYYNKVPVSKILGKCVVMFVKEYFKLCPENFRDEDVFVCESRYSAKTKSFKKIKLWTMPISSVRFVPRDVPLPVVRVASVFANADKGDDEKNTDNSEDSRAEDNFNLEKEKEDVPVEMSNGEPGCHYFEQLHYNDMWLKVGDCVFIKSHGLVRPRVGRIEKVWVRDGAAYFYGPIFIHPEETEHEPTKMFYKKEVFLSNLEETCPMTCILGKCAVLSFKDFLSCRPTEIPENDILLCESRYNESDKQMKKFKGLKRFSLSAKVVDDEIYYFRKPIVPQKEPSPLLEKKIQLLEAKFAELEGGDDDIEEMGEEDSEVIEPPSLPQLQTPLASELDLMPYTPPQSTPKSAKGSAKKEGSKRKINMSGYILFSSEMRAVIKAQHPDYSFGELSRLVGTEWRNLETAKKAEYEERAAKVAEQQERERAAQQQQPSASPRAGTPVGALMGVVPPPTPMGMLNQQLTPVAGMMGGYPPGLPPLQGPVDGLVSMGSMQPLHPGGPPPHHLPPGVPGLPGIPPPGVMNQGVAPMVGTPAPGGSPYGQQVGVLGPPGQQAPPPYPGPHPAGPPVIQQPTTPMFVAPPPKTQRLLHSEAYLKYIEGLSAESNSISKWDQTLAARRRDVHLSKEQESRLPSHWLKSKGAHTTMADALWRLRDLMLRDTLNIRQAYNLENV

For `Nc1nnc(-c2ccccc2)cc1-c1ccccc1`, the equilibrium dissociation constant (Kd) was 4.4 µM in [1], 10 µM in data set [2], 27 µM in [5] and 5.7 µM in data set [6]. The IC50 is 57.1 µM in data set [3] and greater than 100 µM in [4].
`Nc1nnc(-c2ccccc2O)cc1-c1ccccc1`: the IC50 in [4] came out at 27 µM. The solubility kinetic in data set [7] amounted to 11 µM (≈ 2.9 µg/mL). In data set [8], this molecule registered a logD of 3.3.
For `Nc1nnc2c([nH]c3ccccc32)c1-c1ccccc1`, the Kd in data set [1] came to 0.34 µM; in [2], 0.51 µM; in data set [5] it was 0.58 µM; in data set [6] it was 0.17 µM; in [11], 3.5 µM. Moreover, the IC50 in data set [3] is 5.3 µM; in [4], greater than 100 µM; in data set [9], 4.3 µM; in [10], 3.1 µM.
In the case of `CC(=O)N1CCN(c2cc(-c3ccccc3O)nnc2N)C[C@H]1C`, the IC50 in data set [12] is greater than 10 µM; in [14], greater than 10 µM; in data set [15], greater than 10 µM; in data set [4], 34 µM; in data set [21], greater than 10 µM; in data set [22], greater than 10 µM. The IC50 in [25] is greater than 10 µM. For the same molecule, the fraction unbound in data set [13] is 0.24; in data set [17], 0.31; in data set [26], 0.41; in data set [28], 0.31. The same molecule displayed a clearance in data set [16] of 16 mL/min/kg. The molecule also returned a CL free in [18] of 52 mL/min/kg. Also, the Vduss in data set [19] is 3.2 L/kg. This molecule gave a half-life in data set [20] of 66 min. In addition, the solubility kinetic in data set [7] came to 120 µM (≈ 39.3 µg/mL). The molecule also displayed a bioavailability in [23] of 59%. The Cmax in data set [24] is 1000 nM. The Vd in [27] was found to be 1 L/kg. Further, the Tmax in data set [29] stood at 30 min. Further, the logD in [8] was determined as 2.
